Values after ≈ are worked out from the molar mass of the structure shown.
What follows are compounds tested on KB (assay: Cytotoxicity against human KB cells by modified MTT assay). Details: read-out: ED50 (the source's name).
Assay type: functional
For `CC(C)[C@@H](C)[C@H]1C[C@@H]1[C@@H](C)[C@H]1CC[C@@H]2[C@]1(C)CC[C@H]1[C@]23C=C[C@]2(C[C@@H](O)CC[C@]12C)OO3`, the EC50 was 2.1 µg/mL (≈ 4.74 µM). For `C=C(CC[C@@H](C)[C@H]1CC[C@H]2[C@@H]3C[C@@H](O)[C@@]4(O)C[C@@H](O)C[C@H](O)[C@]4(C)[C@H]3CC[C@]12C)C(C)C`, the EC50 was 1.9 µg/mL (≈ 4.23 µM). Work on `CC(=O)[C@H]1CC[C@H]2[C@@H]3CC=C4C[C@@H](O)CC[C@]4(C)[C@H]3CC[C@]12C` [PREGNENOLONE] yielded an EC50 greater than 50 µg/mL.

What follows are compounds tested on HT-29 (assay: Cytotoxicity against human HT29 cells by modified MTT assay). Details: read-out: ED50 (the source's name).
Assay type: functional
In the case of `CC(C)[C@@H](C)[C@H]1C[C@@H]1[C@@H](C)[C@H]1CC[C@@H]2[C@]1(C)CC[C@H]1[C@]23C=C[C@]2(C[C@@H](O)CC[C@]12C)OO3`, the EC50 was 1.4 µg/mL (≈ 3.16 µM). `C=C(CC[C@@H](C)[C@H]1CC[C@H]2[C@@H]3C[C@@H](O)[C@@]4(O)C[C@@H](O)C[C@H](O)[C@]4(C)[C@H]3CC[C@]12C)C(C)C` was tested, and the EC50 was 1.5 µg/mL (≈ 3.34 µM). Work on `CC(=O)[C@H]1CC[C@H]2[C@@H]3CC=C4C[C@@H](O)CC[C@]4(C)[C@H]3CC[C@]12C` [PREGNENOLONE] yielded an EC50 of 0.7 µg/mL (≈ 2.21 µM).

What follows are compounds tested on A549 (assay: Cytotoxicity against human A549 cells by modified MTT assay). Details: read-out: ED50 (the source's name).
Assay type: functional
`CC(C)[C@@H](C)[C@H]1C[C@@H]1[C@@H](C)[C@H]1CC[C@@H]2[C@]1(C)CC[C@H]1[C@]23C=C[C@]2(C[C@@H](O)CC[C@]12C)OO3` gave an EC50 of 2.7 µg/mL (≈ 6.1 µM). Compound `C=C(CC[C@@H](C)[C@H]1CC[C@H]2[C@@H]3C[C@@H](O)[C@@]4(O)C[C@@H](O)C[C@H](O)[C@]4(C)[C@H]3CC[C@]12C)C(C)C` has an EC50 of 10.8 µg/mL (≈ 24.1 µM). Compound `CC(=O)[C@H]1CC[C@H]2[C@@H]3CC=C4C[C@@H](O)CC[C@]4(C)[C@H]3CC[C@]12C` [PREGNENOLONE] has an EC50 of 8.6 µg/mL (≈ 27.2 µM).

The compounds below were run on P388 (assay: Cytotoxicity against mouse P388 cells by modified MTT assay). Details: read-out: ED50 (the source's name).
Assay type: functional
Compound `CC(C)[C@@H](C)[C@H]1C[C@@H]1[C@@H](C)[C@H]1CC[C@@H]2[C@]1(C)CC[C@H]1[C@]23C=C[C@]2(C[C@@H](O)CC[C@]12C)OO3` has an EC50 of 0.4 µg/mL (≈ 0.904 µM). Compound `C=C(CC[C@@H](C)[C@H]1CC[C@H]2[C@@H]3C[C@@H](O)[C@@]4(O)C[C@@H](O)C[C@H](O)[C@]4(C)[C@H]3CC[C@]12C)C(C)C` has an EC50 of 8.3 µg/mL (≈ 18.5 µM). With `CC(=O)[C@H]1CC[C@H]2[C@@H]3CC=C4C[C@@H](O)CC[C@]4(C)[C@H]3CC[C@]12C` [PREGNENOLONE] the EC50 was 7.8 µg/mL (≈ 24.6 µM).

From ChEMBL document CHEMBL1155667, “A cytotoxic 5alpha,8alpha-epidioxysterol from a soft coral Sinularia species” (2000)
